Test results taken from US11591323B2, “Muscarinic agonists as non-steroidal and non-opioid analgesics and methods of use thereof” (Barry University, priority 2019, dated 2023).
Values joined by “and” are separate entries in the source; they are usually repeats but may differ in a detail not shown here. Identical values can stand only once. Like-named read-outs stand apart in the source and are kept apart here.

What was measured:
[1] = molecular target: T1, M3 muscarinic receptor (Homo sapiens, UniProt P20309); assay: accumulation of IPX, M3 CHO cells transfected with G15 (M3Gq+G15); assay type: cell-based; set-up: host or cells: CHO cells
T1 sequence (P20309 whole entry): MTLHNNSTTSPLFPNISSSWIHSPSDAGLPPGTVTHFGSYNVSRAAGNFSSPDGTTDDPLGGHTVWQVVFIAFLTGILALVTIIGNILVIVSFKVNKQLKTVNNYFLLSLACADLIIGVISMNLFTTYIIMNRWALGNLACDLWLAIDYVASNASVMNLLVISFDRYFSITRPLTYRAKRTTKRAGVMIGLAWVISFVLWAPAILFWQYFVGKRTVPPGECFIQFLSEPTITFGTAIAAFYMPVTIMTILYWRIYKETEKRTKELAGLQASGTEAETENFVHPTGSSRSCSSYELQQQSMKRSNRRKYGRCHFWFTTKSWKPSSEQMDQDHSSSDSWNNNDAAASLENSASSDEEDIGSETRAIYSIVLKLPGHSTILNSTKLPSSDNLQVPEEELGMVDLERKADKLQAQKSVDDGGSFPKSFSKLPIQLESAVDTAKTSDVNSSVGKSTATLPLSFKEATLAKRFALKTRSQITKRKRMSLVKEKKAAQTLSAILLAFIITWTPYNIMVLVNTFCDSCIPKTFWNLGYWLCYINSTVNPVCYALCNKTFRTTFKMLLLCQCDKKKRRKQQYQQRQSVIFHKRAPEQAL
Protocol: To determine level of cAMP, cells in suspension were pre-incubated for 1 h with 0.4 μM [^3H]adenine, washed, and incubated for 10 min in the presence of isobutylmethylxanthine and 10 μM forskolin. […] Incubation was ended by addition of 0.2 ml of 2.5 M HCl to the samples. Samples were applied to alumina columns (1.5 g of alumina per column), washed with 2 ml ammonium acetate (pH=7.0) and eluted from columns with 4 ml ammonium acetate and measured by liquid scintillation spectrometry. […] The incubation was stopped by addition of 0.5 ml of chloroform methanol HCl mixture (2:1:0.1). After separation of water and organic phases, 0.6 ml of water phase was applied to Dowex columns (1.5 g of Dowex per column), washed by 20 ml of 60 mM ammonium formate/5 mM sodium borate buffer and eluted from columns with 4 ml of 1M ammonium formate/0.1 formic acid buffer and measured by liquid scintillation spectrometry.
Measurements of the production of cAMP and inositol phosphates: Levels of second messengers cAMP and inositol phosphates were determined in radiochemical chromatography assays as described previously. To determine level of cAMP, cells in suspension were pre-incubated for 1 h with 0.4 μM [^3H]adenine, washed, and incubated for 10 min in the presence of isobutylmethylxanthine and 10 μM forskolin. […] Incubation was ended by addition of 0.2 ml of 2.5 M HCl to the samples. Samples were applied to alumina columns (1.5 g of alumina per column), washed with 2 ml ammonium acetate (pH=7.0) and eluted from columns with 4 ml ammonium acetate and measured by liquid scintillation spectrometry. […] For this purpose, new CHO cell lines stably expressing promiscuous G15 G-protein and M2 or M4 receptor were generated by transfection with pCMV/hygro vector and hygromycin selection. To determine the rate of formation of inositol phosphates IPX, suspended cells were pre-incubated with 0.1 μM [^3H]myo-inositol for 60 min, washed, and incubated with 10 mM LiCl for 15 min. […] The incubation was stopped by addition of 0.5 ml of chloroform methanol HCl mixture (2:1:0.1). After separation of water and organic phases, 0.6 ml of water phase was applied to Dowex columns (1.5 g of Dowex per column), washed by 20 ml of 60 mM ammonium formate/5 mM sodium borate buffer and eluted from columns with 4 ml of 1M ammonium formate/0.1 formic acid buffer and measured by liquid scintillation spectrometry.
For bi-phasic response, curves were inhibitory and stimulatory phase were fitted separately. Operational Model of Functional Agonism
[formula] where y is functional response at concentration of tested compound x, EMAX is maximal response of the system, KA is equilibrium dissociation constant and nH is slope factor. Eq. 5 was fitted to data from functional experiments. Eq. 5 was fitted to data by the two-step procedure described earlier. […] In the second step, Eq. 5 with EMAX fixed to the value determined in the first step was fitted to individual experimental data sets. Relative Intrinsic Activity

[2] = molecular target: T1, M3 muscarinic receptor; assay: [3H]NMS competition binding, M3 CHO membranes; set-up: host or cells: CHO cells, stably transfected
[3] = molecular target: T2, M4 muscarinic receptor (Homo sapiens, UniProt P08173); assay: [3H]NMS competition binding, M4 CHO membranes; set-up: host or cells: CHO cells, stably transfected; conditions: for binding that occurred with high affinity: fraction of binding to M4
T2 sequence (P08173 1-479): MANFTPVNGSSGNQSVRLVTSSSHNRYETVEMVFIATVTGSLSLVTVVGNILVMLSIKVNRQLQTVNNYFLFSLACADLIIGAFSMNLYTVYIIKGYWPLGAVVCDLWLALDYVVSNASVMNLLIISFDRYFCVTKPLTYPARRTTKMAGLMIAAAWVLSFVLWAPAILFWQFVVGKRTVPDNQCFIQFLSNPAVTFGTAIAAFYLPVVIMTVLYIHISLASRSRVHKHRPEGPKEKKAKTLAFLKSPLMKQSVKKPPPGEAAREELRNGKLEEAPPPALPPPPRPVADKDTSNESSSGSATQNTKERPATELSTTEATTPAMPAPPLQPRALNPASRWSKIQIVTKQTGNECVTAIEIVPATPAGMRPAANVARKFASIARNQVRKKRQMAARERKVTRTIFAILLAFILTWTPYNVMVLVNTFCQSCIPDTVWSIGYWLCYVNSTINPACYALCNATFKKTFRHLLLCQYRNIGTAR

[4] = molecular target: T3, M5 muscarinic receptor (Homo sapiens, UniProt P08912); assay: [3H]NMS competition binding, M5 CHO membranes; set-up: host or cells: CHO cells, stably transfected
T3 sequence (P08912 1-532): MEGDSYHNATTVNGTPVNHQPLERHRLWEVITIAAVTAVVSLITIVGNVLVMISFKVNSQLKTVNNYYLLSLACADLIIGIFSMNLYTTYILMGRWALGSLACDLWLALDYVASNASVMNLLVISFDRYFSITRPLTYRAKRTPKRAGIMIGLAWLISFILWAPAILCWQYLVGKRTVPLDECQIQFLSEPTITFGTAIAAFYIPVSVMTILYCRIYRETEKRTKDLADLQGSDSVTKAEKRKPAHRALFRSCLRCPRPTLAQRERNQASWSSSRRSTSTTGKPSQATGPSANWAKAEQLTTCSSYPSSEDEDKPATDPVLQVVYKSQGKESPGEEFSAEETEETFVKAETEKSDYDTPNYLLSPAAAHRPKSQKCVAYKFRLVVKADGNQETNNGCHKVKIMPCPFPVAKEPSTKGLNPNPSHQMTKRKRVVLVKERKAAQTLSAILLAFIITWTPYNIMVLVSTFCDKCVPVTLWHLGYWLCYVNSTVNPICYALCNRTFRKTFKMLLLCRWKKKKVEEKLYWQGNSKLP

[5] = molecular target: T3, M5 muscarinic receptor; assay: accumulation of IPX, M5 CHO cells (M5Gq); assay type: cell-based; set-up: host or cells: CHO cells, stably transfected
[6] = M3Gq + G15 (↑IPX), Table 8, relative to carbachol
[7] = M3Gq + G15 (↑IPX), Table 8, to carbachol
[8] = M3Gq + G15 (↑IPX), Table 8, read-out: pEC50 (converted)
[9] = M3Gq + G15 (↑IPX), Table 8, read-out: pKA (converted)
[10] = competition with 1 nM [3H]NMS, read-out: Inhibition constants (Ki) as negative logarithms, M3 (converted)
[11] = competition with 1 nM [3H]NMS, read-out: Inhibition constants (Ki) as negative logarithms, M5 (converted)
[12] = M5 (↑IPX), preferential response, Table 7
[13] = M5 (↑IPX), preferential response, Table 7, read-out: pEC50 (converted)
[14] = M5 (↑IPX), preferential response, relative to carbachol, Tables 2, 3, 7
[15] = M5Gq (↑IPX), Table 8, relative to carbachol
[16] = M5Gq (↑IPX), Table 8, read-out: pEC50 (converted)
[17] = competition with 1 nM [3H]NMS, read-out: Inhibition constants (Ki) as negative logarithms, M4 (converted)
[18] = high-affinity fraction of binding to M4, read-out: high affinity binding
[19] = M5 (↑IPX), preferential response, Table 7, operational efficacy
[20] = M5 (↑IPX), preferential response, Table 7, operational model, read-out: pKA (converted)
[21] = M5 (↑IPX), preferential response, to carbachol, Tables 2, 3, 7
[22] = pEC50, M5 (↑IPX), preferential response, Table 7

Ki [2, 10] [µM]	Ki [4, 11] [µM]	EC50 [5, 13] [µM]	Ki [3, 17] [µM]	τ [5, 19]	Kd [5, 20] [µM]	Δlog(τ/KA) [5, 21]	SMILES	E′MAX [5, 12] [fold over basal]	RAi [5, 14]	E′MAX ([5]; M5Gq (↑IPX), Table 8) [fold over basal]	RAi [5, 15]	further results
37.2	50.1	1.58					C1=CCN(Cc2cccs2)CC1.Cl [Compound 6A, 1-[(thiophen-2-yl)methyl]-1,2,3,6-tetrahydropyridin-1-ium chloride]	1.19 ± 0.04	0.0025 ± 0.0008	1.16 ± 0.04	0.0023 ± 0.0007	E′MAX ([1]; M3Gq + G15 (↑IPX), Table 8): 2.5 ± 0.2 fold over basal; τ ([1]; M3Gq + G15 (↑IPX), Table 8): 0.06 ± 0.01; RAi [1, 6]: 0.0058 ± 0.0005; Δlog(τ/KA) [1, 7]: 2.23 ± 0.23; EC50 [1, 8]: 5.01 µM; Kd [1, 9]: 5.01 µM; Ki ([3]; at M4 receptors, read-out: Inhibition constants Ki): 54 µM; EC50 [5, 16]: 1.58 µM
22.9	24	15.1	28.8	0.04 ± 0.01	15.8	3.04 ± 0.66	Cc1ccc(CN2CC=CCC2)s1.Cl [Compound 6B, 1-[(5-methylthiophen-2-yl)methyl]-1,2,3,6-tetrahydropyridin-1-ium chloride]	1.7 ± 0.1	0.0009 ± 0.0005			binding that occurred with high affinity [3]: ~10%; Ki [3, 18]: ~0.03 µM; Ki ([3]; high-affinity fraction, M4, read-out: pKI of high affinity binding (converted)): 0.02 µM
14.1	12.9	7.59	12.6	0.02 ± 0.01	7.94	3.03 ± 0.95	Brc1ccc(CN2CC=CCC2)s1.Cl [Compound 6C, 1-[(5-bromothiophen-2-yl)methyl]-1,2,3,6-tetrahydropyridin-1-ium chloride]	1.36 ± 0.08	0.0009 ± 0.0003			
5.25	3.39	4.37	4.37	0.02 ± 0.01	5.01	2.67 ± 0.41	Cc1ccc(C[N+]2(C)CC=CCC2)s1.[I-] (centres unmarked) [Compound 7B, 1-methyl-1-[(5-methylthiophen-2-yl)methyl]-1,2,3,6-tetrahydropyridin-1-ium iodide]	1.47 ± 0.07	0.0021 ± 0.0009			binding that occurred with high affinity [3]: ~10%; Ki [3, 18]: ~0.03 µM

Continued, compound first:

SMILES	Ki [2, 10] [µM]	Ki [4, 11] [µM]	EC50 [5, 13] [µM]	Ki [3, 17] [µM]	τ [5, 19]	Kd [5, 20] [µM]	Δlog(τ/KA) [5, 21]	E′MAX [5, 12] [fold over basal]	RAi [5, 14]	E′MAX ([5]; M5Gq (↑IPX), Table 8) [fold over basal]	RAi [5, 15]	further results
C[N+]1(Cc2cccs2)CC=CCC1.[I-] (centres unmarked) [Compound 7A, 1-methyl-1-[(thiophen-2-yl)methyl]-1,2,3,6-tetrahydropyridin-1-ium iodide]	7.94	10	7.94	7.94				1.28 ± 0.05	0.0007 ± 0.0002 and 0.0007 ± 0.0001	1.26 ± 0.05	0.0006 ± 0.0002	E′MAX ([1]; M3Gq + G15 (↑IPX), Table 8): 3.0 ± 0.3 fold over basal; τ ([1]; M3Gq + G15 (↑IPX), Table 8): 0.08 ± 0.01; RAi [1, 6]: 0.011 ± 0.001; Δlog(τ/KA) [1, 7]: 1.94 ± 0.20; EC50 [1, 8]: 3.16 µM; Kd [1, 9]: 3.16 µM; EC50 [5, 16]: 7.94 µM
C[N+]1(Cc2ccc(Br)s2)CC=CCC1.[I-] (centres unmarked) [Compound 7C, 1-[(5-bromothiophen-2-yl)methyl]-1-methyl-1,2,3,6-tetrahydropyridin-1-ium iodide]	2.04	0.977	3.16	1.45				1.19 ± 0.04	0.0013 ± 0.0005			
C[N+]1(Cc2ccc(Cl)s2)CC=CCC1.[I-] (centres unmarked) [Compound 7D, 1-[(5-chlorothiophen-2-yl)methyl]-1-methyl-1,2,3,6-tetrahydropyridin-1-ium iodide]	3.39				0.14 ± 0.01		2.31 ± 0.50	3.5 ± 0.2	0.0049 ± 0.0006			Ki ([3]; Inhibition constants (Ki) as negative logarithms, M4, competition with 1 nM [3H]NMS): 3.09 µM; Ki ([4]; Inhibition constants (Ki) as negative logarithms, M5, competition with 1 nM [3H]NMS): 1.7 µM; Kd [5]: 12.6 µM; EC50 [5, 22]: 9.77 µM
O=C1CCCN1CC#CCN1CCCC1 [oxotremorine, reference compound]					2.60 ± 0.30		−0.62 ± 0.07	16 ± 1	4.12 ± 0.26	16 ± 1	4.37 ± 0.29	EC50 [1]: 0.1 µM; E′MAX [1]: 22 ± 2 fold over basal; Kd [1]: 0.398 µM; RAi [1]: 4.14 ± 0.38; Δlog(τ/KA) [1]: −0.62 ± 0.06; τ [1]: 2.9 ± 0.3; Ki ([2]; Inhibition constants (KI) as negative logarithms, M3, high site): 0.01 µM; Ki ([2]; Inhibition constants (KI) as negative logarithms, M3, low site): 0.447 µM; Ki ([3]; Inhibition constants (KI) as negative logarithms, M4, high site, reference agonists, high affinity site): 0.0126 µM; Ki ([3]; Inhibition constants (KI) as negative logarithms, M4, low site, reference agonists, low affinity site): 0.617 µM; Ki ([4]; Inhibition constants (KI) as negative logarithms, M5, high site, reference agonists, high affinity site): 0.0126 µM; Ki ([4]; Inhibition constants (KI) as negative logarithms, M5, low site, reference agonists, low affinity site): 0.537 µM; Kd [5]: 0.251 µM; pKA ([5]; M5Gq (↑IPX), Table 8): 6.6 ± 0.1; τ ([5]; M5Gq (↑IPX), Table 8): 2.2 ± 0.3; Δlog(τ/KA) ([5]; M5Gq (↑IPX), Table 8, to carbachol): −0.64; EC50 [5, 22]: 0.0708 µM; EC50 ([5]; pEC50, M5Gq (↑IPX), Table 8): 0.0741 µM
